Assay results published in patent US20250042875A1, “PESTICIDALLY ACTIVE PYRIDAZINONE COMPOUNDS” (SYNGENTA CROP PROTECTION AG, priority 2021, published 2025).

Legend:
Assay type in all cases: in vivo
Spodoptera littoralis = test: Activity against Spodoptera littoralis (Egyptian cotton leaf worm), cotton leaf discs, L1 larvae; details: foliar, 72 h, application rate 200 ppm, 3 days after infestation, read-out: control in at least one of the three categories (mortality, anti-feedant effect, or growth inhibition)
Protocol: Example B8: Activity Against Spodoptera littoralis (Egyptian Cotton Leaf Worm)
Cotton leaf discs were placed onto agar in 24-well microtiter plates and sprayed with aqueous test solutions prepared from 10′000 ppm DMSO stock solutions. After drying the leaf discs were infested with five L1 larvae. The samples were assessed for mortality, anti-feeding effect, and growth inhibition in comparison to untreated samples 3 days after infestation. Control of Spodoptera littoralis by a test sample is given when at least one of the categories mortality, anti-feedant effect, and growth inhibition is higher than the untreated sample.

Diabrotica balteata = test: Activity against Diabrotica balteata (corn root worm), maize sprouts, L2 larvae; details: 96 h, application rate 200 ppm, 4 days after infestation, read-out: control in at least one of the two categories (mortality or growth inhibition)
Protocol: Example B2: Activity Against Diabrotica Balteata (Corn Root Worm)
Maize sprouts placed onto an agar layer in 24-well microtiter plates were treated with aqueous test solutions prepared from 10′000 ppm DMSO stock solutions by spraying. After drying, the plates were infested with L2 larvae (6 to 10 per well). The samples were assessed for mortality and growth inhibition in comparison to untreated samples 4 days after infestation.

Plutella xylostella = test: Activity against Plutella xylostella (diamond back moth), artificial diet, eggs; details: 192 h, application rate 200 ppm, 8 days after infestation, read-out: control in at least one of the two categories (mortality or growth inhibition)
Protocol: Example B7: Activity Against Plutella xylostella (Diamond Back Moth)
24-well microtiter plates with artificial diet were treated with aqueous test solutions prepared from 10′000 ppm DMSO stock solutions by pipetting. After drying, Plutella eggs were pipetted through a plastic stencil onto a gel blotting paper and the plate was closed with it. The samples were assessed for mortality and growth inhibition in comparison to untreated samples 8 days after infestation.

Myzus persicae = test: Activity against Myzus persicae (green peach aphid), intrinsic activity; details: 120 h, test rate 12 ppm, 5 days after infestation
Excerpt: Example B6: Activity Against Myzus persicae (Green Peach Aphid). Intrinsic Activity
Test compounds prepared from 10′000 ppm DMSO stock solutions were applied by pipette into 24-well microtiter plates and mixed with sucrose solution. The plates were closed with a stretched Parafilm. A plastic stencil with 24 holes was placed onto the plate and infested pea seedlings were placed directly on the Parafilm. The infested plate was closed with a gel blotting paper and another plastic stencil and then turned upside down. The samples were assessed for mortality 5 days after infestation.

Euschistus heros = test: Activity against Euschistus heros (neotropical brown stink bug), soybean leaves, N2 nymphs; details: 120 h, application rate 200 ppm, 5 days after infestation, read-out: effect in at least one of the two categories (mortality or growth inhibition)
Protocol: Example B3: Activity Against Euschistus heros (Neotropical Brown Stink Bug)
Soybean leaves on agar in 24-well microtiter plates were sprayed with aqueous test solutions prepared from 10′000 ppm DMSO stock solutions. After drying the leaves were infested with N2 nymphs. The samples were assessed for mortality and growth inhibition in comparison to untreated samples 5 days after infestation.

Chilo suppressalis = test: Activity against Chilo suppressalis (striped rice stemborer), artificial diet, L2 larvae; details: 144 h, application rate 200 ppm, 6 days after infestation, read-out: control in at least one of the three categories (mortality, anti-feedant effect, or growth inhibition)
Protocol: Example B1: Activity Against Chilo suppressalis (Striped Rice Stemborer)
24-well microtiter plates with artificial diet were treated with aqueous test solutions prepared from 10′000 ppm DMSO stock solutions by pipetting. After drying, the plates were infested with L2 larvae (6-8 per well). The samples were assessed for mortality, anti-feeding effect, and growth inhibition in comparison to untreated samples 6 days after infestation. Control of Chilo suppressalis by a test sample is given when at least one of the categories mortality, anti-feedant effect, and growth inhibition is higher than the untreated sample.

C[C@H](NC(=O)c1cc(Cl)cc(C(F)F)c1)c1ncnn1-c1ccc(=O)n(C)n1 [P42, 3-chloro-5-(difluoromethyl)-N-[(1S)-1-[2-(1-methyl-6-oxo-pyridazin-3-yl)-1,2,4-triazol-3-yl]ethyl]benzamide]
≥ 80%: percent control (mortality, anti-feedant effect or growth inhibition) at 200 ppm (Spodoptera littoralis) | percent control (mortality or growth inhibition) at 200 ppm (Diabrotica balteata) | percent control (mortality or growth inhibition) at 200 ppm (Plutella xylostella) | mortality at 12 ppm (Myzus persicae) | percent effect (mortality or growth inhibition) at 200 ppm (Euschistus heros)

C[C@H](NC(=O)c1cc(Cl)cc(OC(F)F)c1)c1ncnn1-c1ccc(=O)n(C)n1 [P37, 3-chloro-5-(difluoromethoxy)-N-[(1S)-1-[2-(1-methyl-6-oxo-pyridazin-3-yl)-1,2,4-triazol-3-yl]ethyl]benzamide]
≥ 80%: percent control (mortality or growth inhibition) at 200 ppm (Diabrotica balteata) | percent control (mortality or growth inhibition) at 200 ppm (Plutella xylostella) | mortality at 12 ppm (Myzus persicae) | percent effect (mortality or growth inhibition) at 200 ppm (Euschistus heros)

C[C@H](NC(=O)c1cc(Cl)cc(C(F)(F)F)c1)c1ncnn1-c1ccc(=O)n(C)n1 [P4, 3-chloro-N-[(1S)-1-[2-(1-methyl-6-oxo-pyridazin-3-yl)-1,2,4-triazol-3-yl]ethyl]-5-(trifluoromethyl) benzamide]
≥ 80%: percent control (mortality, anti-feedant effect or growth inhibition) at 200 ppm (Chilo suppressalis) | percent control (mortality, anti-feedant effect or growth inhibition) at 200 ppm (Spodoptera littoralis) | percent control (mortality or growth inhibition) at 200 ppm (Diabrotica balteata) | percent control (mortality or growth inhibition) at 200 ppm (Plutella xylostella) | mortality at 12 ppm (Myzus persicae) | percent effect (mortality or growth inhibition) at 200 ppm (Euschistus heros)

C[C@H](NC(=O)c1cc(Cl)cc(S(=O)(=O)C(F)(F)F)c1)c1ncnn1C1=NN(C)C(=O)CC1 [P21, 3-chloro-N-[(1S)-1-[2-(1-methyl-6-oxo-4,5-dihydropyridazin-3-yl)-1,2,4-triazol-3-yl]ethyl]-5-(trifluoromethylsulfonyl) benzamide]
≥ 80%: percent control (mortality, anti-feedant effect or growth inhibition) at 200 ppm (Chilo suppressalis) | percent control (mortality, anti-feedant effect or growth inhibition) at 200 ppm (Spodoptera littoralis) | percent control (mortality or growth inhibition) at 200 ppm (Diabrotica balteata) | percent control (mortality or growth inhibition) at 200 ppm (Plutella xylostella) | mortality at 12 ppm (Myzus persicae) | percent effect (mortality or growth inhibition) at 200 ppm (Euschistus heros)

C[C@H](NC(=O)c1cc(I)cc(C(F)(F)F)c1)c1ncnn1-c1ccc(=O)n(C)n1 [P36, 3-iodo-N-[(1S)-1-[2-(1-methyl-6-oxo-pyridazin-3-yl)-1,2,4-triazol-3-yl]ethyl]-5-(trifluoromethyl)benzamide]
≥ 80%: percent control (mortality, anti-feedant effect or growth inhibition) at 200 ppm (Chilo suppressalis) | percent control (mortality, anti-feedant effect or growth inhibition) at 200 ppm (Spodoptera littoralis) | percent control (mortality or growth inhibition) at 200 ppm (Diabrotica balteata) | percent control (mortality or growth inhibition) at 200 ppm (Plutella xylostella) | mortality at 12 ppm (Myzus persicae) | percent effect (mortality or growth inhibition) at 200 ppm (Euschistus heros)

C[C@H](NC(=O)c1cc(C(F)(F)F)cc(C2(C#N)CC2)c1)c1ncnn1-c1ccc(=O)n(C)n1 [P25, 3-(1-cyanocyclopropyl)-N-[(1S)-1-[2-(1-methyl-6-oxo-pyridazin-3-yl)-1,2,4-triazol-3-yl]ethyl]-5-(trifluoromethyl)benzamide]
≥ 80%: percent control (mortality, anti-feedant effect or growth inhibition) at 200 ppm (Chilo suppressalis) | percent control (mortality, anti-feedant effect or growth inhibition) at 200 ppm (Spodoptera littoralis) | percent control (mortality or growth inhibition) at 200 ppm (Diabrotica balteata) | percent control (mortality or growth inhibition) at 200 ppm (Plutella xylostella) | mortality at 12 ppm (Myzus persicae) | percent effect (mortality or growth inhibition) at 200 ppm (Euschistus heros)

C[C@H](NC(=O)c1cc(Br)nc(C2(C#N)CC2)c1)c1ncnn1-c1ccc(=O)n(C)n1 [P39, 2-bromo-6-(1-cyanocyclopropyl)-N-[(1S)-1-[2-(1-methyl-6-oxo-pyridazin-3-yl)-1,2,4-triazol-3-yl]ethyl]pyridine-4-carboxamide]
≥ 80%: percent effect (mortality or growth inhibition) at 200 ppm (Euschistus heros)
